Measured values: patent US20160287534A1, “METHODS FOR REVERSING FIBROSIS” (The University of Connecticut, priority 2015, published 2016)

Columns and labels:
LX-2 cells [1] = test: Cytotoxicity test (Cell Counting Kit-8); assay type: cell-based; details: ASTX up to 25 μM, 24 h (FIG. 1A)
Description: LX-2 cells were incubated with 0-200 μM ASTX for 24 h and its cytotoxicity was measured using a Cell Counting Kit-8 (Dojindo Inc., Rockville, Md.) as previously described (see Yang et al. Food Chem. Toxicol. 2011, vol. 49, pp. 1560-1564). Positive control (0.5 mM SDS) was run in parallel.

LX-2 cells [2] = test: qRT-PCR of LX-2 cells transfected with scramble control or Smad3 siRNA; assay type: cell-based
Description: Total RNA extraction, cDNA synthesis, and qRT-PCR were conducted using a Bio-Rad CFX96 Real-Time system (Bio-Rad, Hercules, Calif.) as previously described (see Park et al. Nutr. Res. 2008, vol. 28, pp. 83-91; Rasmussen et al. J. Nutr. 2008, vol. 138, pp. 476-481). Gene sequences were obtained from the GenBank database and primers were designed using Beacon Designer (Premier Biosoft, Palo Alto, Calif.). Primer sequences are available (see supplemental table of Yang et al. Biochimica et Biophysica Acta 2015, vol. 1850, pp. 178-185).
LX-2 cells were transfected with either Silencer® Negative Control scrambled siRNA (Ambion, Invitrogen, Grand Island, N.Y.) or siGENOME SMARTpool SMAD3 siRNA (siGenome, Thermo Scientific, Logan, Utah) as described previously (see Angulo N. Engl. J. Med. 2002, vol. 346, pp. 1221-1231). Twenty four hours after the transfection, cells were pretreated with 25 μM ASTX for 12 h, after which they were stimulated by 2 ng/mL TGFβ1 for additional 12 h for subsequent qRT-PCR analysis.

mouse primary HSCs [3] = test: Activation of mouse primary qHSCs (Example 2): morphology, qRT-PCR, Western blot; assay type: cell-based
Description: (§1) Mouse primary HSCs were isolated from C57BL/6J, nuclear erythroid 2-related factor 2 (NRF2) knockout (Nrf2−/−), and wild-type mice using a pronase/collagenase digestion method as described herein Example 1. The cells were then cultured on untreated petri dishes (BD Falcon, Franklin Lakes, N.J.), and maintained in a low-glucose DMEM medium supplemented with 10% FBS, 4 mM L-glutamine, and P/S (100 U/100 μg per mL). Human primary HSCs (Zen-Bio, Research Triangle Park, N.C.) were maintained in a low-glucose DMEM medium containing 2% FBS, 4 mM L-glutamine, 1× nonessential amino acids, 1× vitamins, and P/S (100 U/100 μg per mL). The cells were seeded on a collagen-coated plate for experiments (Sarstedt, Newton, N.C.). LX-2 cells, kindly provided by Dr. Scott Friedman at the Icahn School of Medicine at Mount Sinai (New York, N.Y.), were maintained in a low-glucose DMEM supplemented with 2% FBS, 4 mM L-glutamine, and P/S (100 U/100 μg per mL). All cells were cultured in a 37° C. humidified cell culture chamber with 5% CO2. Cell culture supplies were purchased from HyClone unless stated otherwise (Thermo Scientific, Logan, Utah).
(§2) ASTX, provided by Fuji Chemical Industry Co., Ltd. (Toyama, Japan), was prepared in DMSO as described herein in Example 1. After plated on an uncoated dish, mouse qHSCs were incubated with 25 μM ASTX during activation. aHSCs, which were prepared by culturing qHSCs on an uncoated dish for 6 d, were incubated with 25 μM ASTX for 2 or 4 more days. Also, cells were incubated with 3 μM tert-butyl hydrogen peroxide (tBHP, Thermo Scientific) for 12 h with or without 25 μM ASTX. Medium containing ASTX was replenished daily and DMSO vehicle control was always run in parallel. Human primary HSC were treated with 25 μM ASTX for 24 h, after which they were activated by 3 ng/mL of TGFβ1 (Peprotech, Rocky Hill, N.J.) for 24 h.
(§3) Total RNA extraction, cDNA synthesis, and qRT-PCR were conducted using a Bio-Rad CFX96 Real-Time system (Bio-Rad, Hercules, Calif.) as previously described (Id.). Primer sequences will be available upon request.
(§4) Whole cell lysates and human tissue protein extracts were prepared and Western blot analysis were performed as described (Id.) using antibodies against α-SMA (Sigma, St. Louis, Mo.), HDAC3 (Santa Cruz Biotechnology, Santa Cruz, Calif.), HDAC4 (Santa Cruz Biotechnology), HDAC9 (Abcam, Cambridge, Mass.; Novus Biologicals, Littleton, Colo.), Col1A1 (Sigma). β-tubulin (Santa Cruz) or glyceraldehyde 3-phosphate dehydrogenase (GAPDH) (Santa Cruz) was used as a loading control.

mouse primary HSCs [4] = test: ROS measurement in mouse primary HSCs; assay type: cell-based; details: ASTX treatment for 6 d during activation (FIG. 8A)
Description: Mouse primary qHSCs were seeded on an uncoated black 24-well μ-Plate (Ibidi, Verona, Wis.). At day 6 of activation, cellular ROS levels were measured using dichlorofluorescin (Sigma-Aldrich, St. Louis, Mo.) as described (Id.). The cells were then fixed with 4% formaldehyde for 10 min, and incubated with 0.1% CellTag 700 stain (Li—COR, Lincoln, Nebr.), a fluorescent stain, for cell number normalization, for 1 h. Fluorescent signals were obtained by an Odyssey® CLx Infrared Imaging System (Li—COR) and a Li—COR Image Studio software. Data were expressed as relative fluorescent intensity divided by total cell stain signal.

aHSCs = test: Reversion of aHSCs to iHSCs: morphology, qRT-PCR, α-SMA protein; assay type: cell-based, mouse
Description: as §2, §3, §4

[5] = test system: HDAC9 and myocyte enhancer factor 2 (MEF2); test: HDAC and MEF2 mRNA and protein expression in mouse primary HSCs; assay type: cell-based
Description: as §2, §3, §4

human primary HSCs = test: qRT-PCR of fibrogenic genes in human primary HSCs; assay type: cell-based
Description: as §1
ASTX, provided by Fuji Chemical Industry Co., Ltd. (Toyama, Japan), was prepared in DMSO as described herein in Example 1. […]

[6] = ASTX added at day 4 for 2 d during HSC activation (FIG. 8B)
[7] = ASTX added at day 4 for 2 d during HSC activation (FIG. 10D)

CC1=C(/C=C/C(C)=C/C=C/C(C)=C/C=C/C=C(C)/C=C/C=C(C)/C=C/C2=C(C)C(=O)C(O)CC2(C)C)C(C)(C)CC(O)C1=O (centres unmarked) [ASTX, astaxanthin]
cell viability (LX-2 cells [1]): more than 90%
induction of fibrogenic genes by TGFβ1 (LX-2 cells [2]; LX-2 cells transfected with scrambled control, 25 μM ASTX 12 h (FIG. 4)): attenuated
expression of α-SMA (LX-2 cells [2]; Smad3-deficient (siRNA) LX-2 cells): minimal inhibitory effect
increase in TGFβ1 mRNA by TGFβ1 itself (LX-2 cells [2]; regardless of Smad3): inhibited
NOX2 mRNA (mouse primary HSCs [3]; [6]): decreased
NOX4 mRNA (mouse primary HSCs [3]; [6]): significantly increased
protein levels of α-SMA (mouse primary HSCs [3]; ASTX for 2 days during activation (FIG. 7C)): noticeably decreased
cytoplasmic lipid droplets (mouse primary HSCs [3]; day 6, cells treated with ASTX for 2-6 days (FIG. 7A)): more lipid droplets than controls
cell morphology vs control (mouse primary HSCs [3]; days 2 and 4 of activation, 25 μM ASTX (FIG. 7A)): no noticeable differences
α-SMA and Col1A1 mRNA (mouse primary HSCs [3]; during activation of qHSCs, 25 μM ASTX (FIG. 7B)): significantly decreased
cellular ROS levels (mouse primary HSCs [4]): significantly lowered
cell morphology (lipid droplets) (aHSCs; aHSCs treated with ASTX for 2 or 4 d (FIG. 9A)): reappearance of cytoplasmic lipid droplets
α-SMA and Col1A1 mRNA (aHSCs; aHSCs treated with ASTX for 2 d (FIG. 9B)): significantly decreased
ADRP mRNA levels, control vs ASTX-treated (aHSCs; aHSCs, ASTX for 2 d (FIG. 9D)): no significant difference
LRAT mRNA (aHSCs; aHSCs, ASTX for 2 d (FIG. 9D)): markedly increased
SREBP1c mRNA levels (aHSCs; aHSCs, ASTX for 2 d (FIG. 9D)): significantly decreased
α-SMA protein (aHSCs; aHSCs, day 8, ASTX for 2 d (FIG. 9C)): significantly decreased
HDAC2 protein level [5, 7]: minimally altered
decrease of HDAC3 and 4 protein levels [5, 7]: ~50%
decrease of HDAC9 protein level [5, 7]: ~70%
mRNA levels of HDAC9 ([5]; aHSCs incubated with ASTX for 2 d (FIG. 10F)): significantly repressed
mRNA levels of MEF2 isoforms ([5]; aHSCs incubated with ASTX for 2 d (FIG. 10G)): significantly repressed
induction of MEF2a, 2c and 2d mRNA ([5]; during HSC activation, ASTX for 2 d from day 4 (FIG. 10E)): significantly attenuated
HDAC9 mRNA induction ([5]; during activation of qHSCs (FIG. 10B)): significantly decreased
TGFβ1-mediated induction of α-SMA and Col1A1 mRNA (human primary HSCs; 25 μM ASTX 24 h, then TGFβ1 3 ng/ml 24 h (FIGS. 11A, 11B)): attenuated
basal levels of α-SMA and Col1A1 mRNA (human primary HSCs; 25 μM ASTX (FIGS. 11A, 11B)): attenuated
